Here are results for 54 compounds from US20210163489A1, “PYRAZOLOPYRIMIDINE DERIVATIVES AND THE COMPOSITIONS AND METHODS OF TREATMENT REGARDING THE SAME” (NysnoBio Ireland DAC, priority 2016, published 2021).

A value given as a limit tells only on which side of the number the result lay.

The experiment addresses T1, Parkin (Homo sapiens, UniProt O60260).
T1 construct: Enzyme 3: Parkin-His tagged 203 μM (10.5 mg/ml)
Kind of experiment: Parkin pUB auto-ubiquitinylation assay (TR-FRET). In kind it is biochemical. As to conditions: for EC50: activation of pUb activated Parkin, read-out: Auto-ubiq EC50 (μM) [Example 3]. From the text: A Parkin pUB Auto-ubiquitinylation Assay is used to evaluate a compound's potency to activate Parkin's ability to Auto-ubiquitinylate itself.
The principle of this assay is that the E3 Ligase Parkin catalyzes the transfer of Ubiquitin to target proteins, but also has the ability to auto-ubiquitinylate itself. The phospho-Ubiquition (pUb) added to the assay alters the Parkin to a state where small molecule activators can enable the Parkin to auto-ubiquitinylate though the E1-E2 cascade reaction. The use of a Eu cryptate Ubiquition and anti 6His-d2 that binds to the His tagged Parkin will give a signal when the Eu cryptate Ubiquition is auto-ubiquitinylate onto the Parkin which can be monitored by TR-FRET.
Similar to the Activity-based probe assay in Example 2, screening for activating compounds can be distinguished from the controls as follows:
100% activation signal=pUb activated Parkin+40 nM control activator in DMSO. 0% activation signal=pUb activated Parkin+DMSO only. Parkin activators can be identified by an increase of the 0% activation signal TR-FRET signal.
• Assay Plate: White 384 well plate (Corning 3572) • Enzyme 1: E1 (Ubiquitin-activating enzyme/UBE1 Boston Biochem E-305) • Enzyme 2: E2 (UBcH7/Ube2L3 Boston Biochem E2-640) • Enzyme 3: Parkin-His tagged 203 μM (10.5 mg/ml) • pUb: Phospho-Ubiquitin (S65) (Boston Biochem U-102) • Eu Cryptate Reagent: Ubiquitin Eu (CisBio 61UBIKLA) • DMSO: DMSO (Sigma-34869-2.5L) • Reaction Buffer: 50 mM HEPES, 50 mM NaCl, 1 mM MgCl2, 0.005% Tween 20, 0.1% • PF-127 (Fisher Scientific 50-310-494), pH 8.5 • Detection Buffer: 50 mM HEPES, 50 mM NaCl, 800 mM KF, 5 mM EDTA, 0.005% • Tween 20, 0.1% PF-127, pH 8.5 • Detection Reagent Z: 13.4 nM Anti-6His-d2 in detection buffer • d2 Reagent: Anti-6His-d2 (CisBio 61HISDLA)
Enzyme Reaction (15 min Pre-Incubation with Parkin, pUb and Activator Only) • Parkin: 196 nM • pUb: 196 nM • DMSO: 1% DMSO • E1: 5 nM • E2: 50 nM • Ubiquitin Eu: 8.8 nM • Reaction time: 120 minutes • Temperature: 22° C. • Total volume: 10 μl reaction
Take 10 μl of Enzyme Reaction above and add 10 μl detection Reagent Z under the following conditions:
Reaction time: 60 minutes
1) Load assay plate wells with 4.9 μl 400.0 nM Parkin, 400 nM pUb in reaction buffer by use of Eppendorf 12-channel pipette. 2) Deliver 0.1 μl 100× activator candidates in DMSO by use of Echo 555 compound dispenser. Highest 100× concentration=100 μm and then twofold dilutions. Add each compound and control in duplicate wells. 3) Spin 1000 rpm, 2 minutes, at room temp. 4) Incubate plate for 15 minutes at room temp. 5) Add 5 μl 10 nM E1, 100 nM E2, 17.6 nM Ubiquitin Eu and 2 mM ATP in Reaction Buffer by use of Eppendorf 12-channel pipette. 6) Spin 1000 rpm, 2 minutes, at room temp. 7) Incubate plate for 120 minutes at room temp. 8) Add 10 μl 13.4 nM anti his d2 in detection buffer by use of Eppendorf 12-channel pipette. 9) Spin 1000 rpm, 2 minutes, at room temp. 10) Incubate plate for 120 minutes at room temp. 11) Read plates on Perkin Elmer Envision instrument with the following parameters:
LANCE dual laser protocol loaded into the Envision® software
Top Mirror: LANCE/DELFIA Duel/Bias (Bar code 446) Emission Filter: APC 665 EM (Bar code 205) 2nd Emission Filter: Europium 615 EM (Bar code 203) Read […] (channel 1) and 615 nm (channel 2) wavelengths on Envision®
Data Analysis: The Data can be read in CSV files. There are two tables in those CSV files, which are the values of 655 nm (channel 1) and 615 nm (channel 2) wavelengths respectively. The data is converted to an HTRF Ratio=(Channel 1/Channel 2)*10,000
The average of all the 0 uM controls (DMSO only)=BKGD (Background—0% activation). Subtract BKGD from each HTRF Ratio value=HTRF-BKGD. The average of all the 100 uM control activator in DMSO controls=Max (100% activation). The following equation is then used to calculate % Activation for each well/candidate as follows: % Activation=(HTRF−BKGD/Max)*100.
XLFIT5 model 205 was applied for the data analysis. […]
(TR-FRET usually uses a lanthanide donor and a delayed reading to cut background.)

T1 sequence (O60260 whole entry, other chains not shown): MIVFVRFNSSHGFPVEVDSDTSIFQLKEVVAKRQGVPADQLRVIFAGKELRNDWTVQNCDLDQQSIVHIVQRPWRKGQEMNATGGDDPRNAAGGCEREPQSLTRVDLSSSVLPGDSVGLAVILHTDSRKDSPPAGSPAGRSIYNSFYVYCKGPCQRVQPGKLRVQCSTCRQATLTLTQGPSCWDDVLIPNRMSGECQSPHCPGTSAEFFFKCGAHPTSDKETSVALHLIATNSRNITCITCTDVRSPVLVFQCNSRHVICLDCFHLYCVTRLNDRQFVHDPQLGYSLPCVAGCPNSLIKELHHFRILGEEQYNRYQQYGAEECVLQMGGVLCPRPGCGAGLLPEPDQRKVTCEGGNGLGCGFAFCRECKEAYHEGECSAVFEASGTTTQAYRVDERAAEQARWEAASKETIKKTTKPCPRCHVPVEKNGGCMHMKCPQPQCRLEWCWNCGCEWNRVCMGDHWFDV

In the case of `Cc1nc2c(-c3ccccc3)c(C)nn2c(S)c1Cc1ccncc1` [Compound AA, 2,5-dimethyl-3-phenyl-6-(4-pyridylmethyl)pyrazolo[1,5-a]pyrimidine-7-thiol], the EC50 is over 40 µM.

Turning to `Cc1cc(O)n2ncc(-c3cccc(N(C)C)c3)c2n1` [Compound M3], the EC50 was over 40 µM. For the compound `CC(C)(C)c1cc(O)n2ncc(-c3ccccc3)c2n1` [J], the EC50 came out at 13.4 µM. On the same count and under the same terms, with `Cc1nc2c(-c3ccccc3)c(C)nn2c(O)c1Cc1ccccn1` [Compound Y, 2,5-dimethyl-3-phenyl-6-(2-pyridylmethyl)pyrazolo[1,5-a]pyrimidin-7-ol] the figure was over 40 µM; with `CNc1c2c(nc3c(-c4ccccc4)c(C)nn13)CCN(C)C2` [YY], over 40 µM; with `Cc1nc2c(-c3ccccn3)c(C)nn2c(S)c1Cc1ccccc1` [HH], over 40 µM. On the same count and under the same terms, the same measure for `Cc1nc2c(-c3ccncc3)c(C)nn2c(S)c1Cc1ccccc1` [MM]: over 40 µM; for `Cc1cc(S)n2ncc(-c3cnn(C)c3)c2n1` [VV]: over 40 µM. On to `Cc1nn2c(S)c(CC(C)C)cnc2c1-c1ccccc1` [Compound G3], for which the EC50 was over 40 µM. For `Cc1ccc(-c2cnn3c(O)c4c(nc23)CN(C)CC4)cc1` [Compound P3], the EC50 is over 40 µM. Same read-out and setting: with `COc1ccccc1-c1c(C)nn2c(S)cc(C)nc12` [Compound D] the figure was 11.7 µM. Consider `Cc1nc2c(-c3ccccc3)c(C)nn2c(S)c1Cc1ccccc1` [Compound A, 6-benzyl-2,5-dimethyl-3-phenylpyrazolo[1,5-a]pyrimidine-7-thiol], for which the “Parkin activity in an auto-ubiquitination assay” value was “increases”.

As for `CC(C)(C)c1cc(O)n2ncc(-c3ccc(Cl)cc3)c2n1` [Compound G], the EC50 is over 40 µM. Regarding `Cc1nn2c(S)c(Cc3ccccc3)cnc2c1-c1ccccc1` [Compound DD, 6-benzyl-2-methyl-3-phenyl-pyrazolo[1,5-a]pyrimidin-7-thiol], the EC50 is over 40 µM. For the compound `Cc1nn2c(O)cc(C(C)(C)C)nc2c1-c1ccc(Cl)cc1` [F], the EC50 is over 40 µM. Regarding `Cc1cc2nc(C)c(Cc3ccccc3)c(O)n2n1` [Q], the EC50 was over 40 µM. Regarding `COc1ccc(-c2cnn3c(O)cc(C)nc23)cc1` [Compound J3], the concentration giving a half-maximal response (EC50) is over 40 µM.

On to `Cc1nn2c(S)c3c(nc2c1-c1ccccc1)CCOC3` [WW], for which the EC50 was over 40 µM.

Regarding `Cc1cc(S)n2ncc(-c3ccc(F)cc3)c2n1` [Compound L, 3-(4-fluorophenyl)-5-methylpyrazolo[1,5-a]pyrimidine-7-thiol], the “Parkin activity in an auto-ubiquitination assay” value is on record as “increases” and the EC50 stood at 27.1 µM. Consider `Oc1c(Cc2ccccc2)cnc2c(-c3ccccc3)cnn12` [Compound W, 6-benzyl-3-phenyl-pyrazolo[1,5-a]pyrimidin-7-ol], for which the EC50 is over 40 µM. The same measure, in the same setting: the same measure for `Cc1nc2c(-c3ccccc3)cnn2c(O)c1Cc1ccccc1` [Compound U, 6-benzyl-5-methyl-3-phenyl-pyrazolo[1,5-a]pyrimidin-7-ol]: 14.7 µM. The same measure, in the same setting: with `Cc1cc2nc(C)c(Cc3ccc(Cl)cc3)c(O)n2n1` [Compound P, 6-[(4-chlorophenyl)methyl]-2,5-dimethyl-pyrazolo[1,5-a]pyrimidin-7-ol] the figure was 20.1 µM.

For the compound `Cc1nc2c(C(F)(F)F)c(C)nn2c(O)c1Cc1ccccc1` [JJ], the EC50 was over 40 µM.

As for `Cc1cc(S)n2ncc(-c3cccc(N(C)C)c3)c2n1` [UU], the EC50 is over 40 µM. On the same count and under the same terms, the same measure for `Cc1nn2c(S)c3c(nc2c1-c1ccccc1)CN(C)CC3` [Compound C3]: over 40 µM.

As for `Cc1cc(C)c2c(n1)nn1c(S)c(Cc3ccccc3)c(C)nc21` [RR], the EC50 was over 40 µM. The same measure, in the same setting: the same measure for `Cc1cc(C)c2c(n1)nn1c(O)c(Cc3ccccc3)c(C)nc21` [NN]: over 40 µM; for `Cc1ccc(-c2cnn3c(S)c4c(nc23)CN(C)CC4)cc1` [Compound S3]: over 40 µM; for `Cc1nc2c(-c3ccccc3)cnn2c(S)c1Cc1ccccc1` [Compound CC, 6-benzyl-5-methyl-3-phenyl-pyrazolo[1,5-a]pyrimidin-7-thiol]: over 40 µM. The same measure, in the same setting: with `COc1ccc(Cn2ccc(-c3cnn4c(S)cc(C)nc34)cc2=O)cc1` [Compound B3] the figure was over 40 µM. As to `COc1ccc(-c2cnn3c(S)cc(C)nc23)cc1` [SS], the EC50 is over 40 µM. For `Cc1nn2c(O)c(CC(C)C)cnc2c1-c1ccccc1` [Compound I3], the EC50 is over 40 µM. Turning to `Cc1nc2c(C#N)c(C)nn2c(S)c1Cc1ccccc1` [OO], the EC50 was over 40 µM.

Regarding `Cc1nc2c(-c3cccnc3)c(C)nn2c(S)c1Cc1ccccc1` [Compound D3], the EC50 worked out at 21 µM. Same read-out and setting: with `Cc1cc(S)n2ncc(-c3cc[nH]c(=O)c3)c2n1` [Compound A3] the figure was over 40 µM; with `Cc1cc(O)n2nc(C)c(-c3ccc(Cl)cc3)c2n1` [M], over 40 µM. The same measure, in the same setting: with `Cc1ccc(-c2cnn3c(O)cc(C)nc23)cc1` [Compound H3] the figure was over 40 µM; with `Cc1cc(S)c2ncc(-c3ccc(F)cc3)n2n1` [Compound F3], 32 µM; with `CCCc1cc(S)n2nc(C)c(-c3ccccc3)c2n1` [Compound B], over 40 µM.

Regarding `Cc1nc2c(-c3ccccn3)c(C)nn2c(O)c1Cc1ccccc1` [FF], the EC50 is over 40 µM. The same measure, in the same setting: the same measure for `CCc1nn2c(S)cc(C)nc2c1-c1ccc(F)cc1` [Compound I]: 6.4 µM.

With `Cc1nn2c(S)cc(C(C)C)nc2c1-c1ccccc1` [H], the EC50 was over 40 µM. The same measure, in the same setting: with `Cc1cc(S)n2ncc(-c3ccccc3)c2n1` [Compound C] the figure was over 40 µM; with `Cc1nc2c(-c3ccccc3)c(C)nn2c(S)c1Cc1ccccn1` [Compound BB, 2,5-dimethyl-3-phenyl-6-(2-pyridylmethyl)pyrazolo[1,5-a]pyrimidine-7-thiol], 8.8 µM; with `Cc1nn2c(S)c3c(nc2c1-c1ccccc1)CCCC3` [Compound K], over 40 µM. On to `Cc1nn2c(S)c3c(nc2c1-c1ccccc1)COC3` [XX], for which the EC50 is over 40 µM. For the compound `Cc1nn2c(S)c(C)c(Cc3ccccc3)nc2c1-c1ccccc1` [ZZ], the EC50 was over 40 µM. As to `Cc1nc2c(-c3ccccc3)c(C)nn2c(O)c1Cc1ccccc1` [T], the EC50 is over 40 µM. Take `Cc1nc2c(C(=O)N(C)C)c(C)nn2c(S)c1Cc1ccccc1` [II]: the EC50 is over 40 µM.

On to `Cc1nc2c(-c3cccnc3)c(C)nn2c(O)c1Cc1ccccc1` [Compound L3], for which the EC50 is over 40 µM.

Take `Cc1nc2c(C#N)c(C)nn2c(O)c1Cc1ccccc1` [Compound GG, 6-benzyl-7-hydroxy-2,5-dimethyl-pyrazolo-[1,5-a]pyrimidine-3-carbonitrile]: the EC50 is over 40 µM. On to `Cc1cc2nc(C)c(Cc3ccccc3)c(S)n2n1` [S], for which the EC50 was over 40 µM. Regarding `Cc1nc2c(C3CCN(C)CC3)c(C)nn2c(S)c1Cc1ccccc1` [Compound N3], the EC50 was over 40 µM. For `Cc1nc2c(-c3ccccc3)c(C)nn2cc1Cc1ccccc1` [QQ], the EC50 was over 40 µM.

What is called EC50 is the concentration at which the effect is half-maximal.
